Values of other authors in paper PMC7709506 (ESMO Open, 2020).

Conditions: patients, phase I/II trial; cited from earlier work

For `CNC(=O)c1cccc2cc(Oc3ccnc4cc(OCC5(N)CC5)c(OC)cc34)ccc12` [lucitanib], the Hypertension is listed as 91% and the “grade 3 hypertension events” value is listed as 57%.
